Reference: the supplement of paper PMC10733146

How the values were obtained:
Assay in all cases: viability relative to DMSO control (fraction); higher = less drug effect (more viable cells)
Conditions in all cases: 48 h
[1] = system: primary MCL patient cells (S041)
Outline: (§1)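 The cells were primary mononuclear tumour cells, either fresh or cryopreserved, isolated by Ficoll from blood or bone marrow or derived from processed lymph node. Each well of a 384-well plate received 4 × 10^4 cells onto compounds pre-plated at five concentrations, with one well per concentration. The medium was RPMI-1640 with penicillin/streptomycin, L-glutamine and human serum, and plates stood at 37 °C and 5% CO2 for 48 h. Viability is reported as CellTiter-Glo luminescence relative to the median of 16 inner DMSO wells.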

[2] = system: primary AML patient cells (S056)
Outline: as §1

[3] = system: primary AML patient cells (S085)
Outline: as §1

[4] = system: primary AML patient cells (S079)
Outline: as §1

[5] = system: primary AML patient cells (S006)
Outline: as §1

[6] = system: primary FL patient cells (S087)
Outline: as §1

[7] = system: primary AML patient cells (S060)
Outline: as §1

[8] = system: primary AML patient cells (S071)
Outline: as §1

[9] = system: primary AML patient cells (S017)
Outline: as §1

[10] = system: primary MCL patient cells (S063)
Outline: as §1

[11] = system: primary BL patient cells (S005)
Outline: as §1

[12] = system: primary DLBCL patient cells (S082)
Outline: as §1

[13] = system: primary ALL patient cells (S088)
Outline: as §1

[14] = system: primary AML patient cells (S072)
Outline: as §1

[15] = system: primary MCL patient cells (S053)
Outline: as §1

[16] = system: primary CLL patient cells (S031)
Outline: as §1

[17] = system: primary AML patient cells (S009)
Outline: as §1

[18] = system: primary B-PLL patient cells (S016)
Outline: as §1

[19] = system: primary CLL patient cells (S043)
Outline: as §1

[20] = system: primary AML patient cells (S012)
Outline: as §1

Oc1ccc(/C=C/c2cc(O)cc(O)c2)cc1 [Resveratrol]
viability ([1]; 0.024 µM): 0.948 | viability ([1]; 0.12 µM): 0.904 | viability ([1]; 0.6 µM): 0.904 | viability ([1]; 3 µM): 0.896 | viability ([1]; 15 µM): 0.77 | viability ([2]; 0.024 µM): 0.714 | viability ([2]; 0.12 µM): 0.966 | viability ([2]; 0.6 µM): 0.645 | viability ([2]; 3 µM): 0.596 | viability ([2]; 15 µM): 0.466 | viability ([3]; 0.024 µM): 0.783 | viability ([3]; 0.12 µM): 0.735 | viability ([3]; 0.6 µM): 0.819 | viability ([3]; 3 µM): 0.735 | viability ([3]; 15 µM): 0.658 | viability ([4]; 0.024 µM): 0.838 | viability ([4]; 0.12 µM): 0.767 | viability ([4]; 0.6 µM): 0.792 | viability ([4]; 3 µM): 0.718 | viability ([4]; 15 µM): 0.736 | viability ([5]; 0.024 µM): 0.862 | viability ([5]; 0.12 µM): 0.866 | viability ([5]; 0.6 µM): 0.845 | viability ([5]; 3 µM): 0.872 | viability ([5]; 15 µM): 0.804 | viability ([6]; 0.024 µM): 0.804 | viability ([6]; 0.12 µM): 0.857 | viability ([6]; 0.6 µM): 0.803 | viability ([6]; 3 µM): 0.877 | viability ([6]; 15 µM): 0.815 | viability ([7]; 0.024 µM): 0.964 | viability ([7]; 0.12 µM): 0.99 | viability ([7]; 0.6 µM): 0.946 | viability ([7]; 3 µM): 0.918 | viability ([7]; 15 µM): 0.893 | viability ([8]; 0.024 µM): 0.774 | viability ([8]; 0.12 µM): 0.734 | viability ([8]; 0.6 µM): 0.732 | viability ([8]; 3 µM): 0.688 | viability ([8]; 15 µM): 0.591 | viability ([9]; 0.024 µM): 0.89 | viability ([9]; 0.12 µM): 0.933 | viability ([9]; 0.6 µM): 0.92 | viability ([9]; 3 µM): 0.883 | viability ([9]; 15 µM): 0.902 | viability ([10]; 0.024 µM): 0.862 | viability ([10]; 0.12 µM): 0.858 | viability ([10]; 0.6 µM): 0.863 | viability ([10]; 3 µM): 0.854 | viability ([10]; 15 µM): 0.825 | viability ([11]; 0.024 µM): 0.942 | viability ([11]; 0.12 µM): 0.954 | viability ([11]; 0.6 µM): 0.921 | viability ([11]; 3 µM): 0.9 | viability ([11]; 15 µM): 0.828 | viability ([12]; 0.024 µM): 0.79 | viability ([12]; 0.12 µM): 0.776 | viability ([12]; 0.6 µM): 0.828 | viability ([12]; 3 µM): 0.871 | viability ([12]; 15 µM): 0.954 | viability ([13]; 0.024 µM): 0.427 | viability ([13]; 0.12 µM): 0.459 | viability ([13]; 0.6 µM): 0.489 | viability ([13]; 3 µM): 0.477 | viability ([13]; 15 µM): 0.426 | viability ([14]; 0.024 µM): 1.07 | viability ([14]; 0.12 µM): 0.797 | viability ([14]; 0.6 µM): 0.816 | viability ([14]; 3 µM): 0.798 | viability ([14]; 15 µM): 0.687 | viability ([15]; 0.024 µM): 0.75 | viability ([15]; 0.12 µM): 0.671 | viability ([15]; 0.6 µM): 0.595 | viability ([15]; 3 µM): 0.686 | viability ([15]; 15 µM): 0.772 | viability ([16]; 0.024 µM): 0.761 | viability ([16]; 0.12 µM): 0.766 | viability ([16]; 0.6 µM): 0.744 | viability ([16]; 3 µM): 0.67 | viability ([16]; 15 µM): 0.553 | viability ([17]; 0.024 µM): 0.782 | viability ([17]; 0.12 µM): 0.815 | viability ([17]; 0.6 µM): 0.815 | viability ([17]; 3 µM): 0.789 | viability ([17]; 15 µM): 0.683 | viability ([18]; 0.024 µM): 0.852 | viability ([18]; 0.12 µM): 0.85 | viability ([18]; 0.6 µM): 0.864 | viability ([18]; 3 µM): 0.907 | viability ([18]; 15 µM): 0.787 | viability ([19]; 0.024 µM): 0.825 | viability ([19]; 0.12 µM): 0.864 | viability ([19]; 0.6 µM): 0.821 | viability ([19]; 3 µM): 0.799 | viability ([19]; 15 µM): 0.711 | viability ([20]; 0.024 µM): 0.981 | viability ([20]; 0.12 µM): 1.02 | viability ([20]; 0.6 µM): 0.972 | viability ([20]; 3 µM): 0.957 | viability ([20]; 15 µM): 0.986

O=C1c2c(O)ccc(O)c2C(=O)c2c(NCCNCCO)ccc(NCCNCCO)c21 [Mitoxantrone]
viability ([1]; 0.008 µM): 0.985 | viability ([1]; 0.04 µM): 0.862 | viability ([1]; 0.2 µM): 0.569 | viability ([1]; 1 µM): 0.0728 | viability ([1]; 5 µM): 0.015 | viability ([2]; 0.008 µM): 0.397 | viability ([2]; 0.04 µM): 0.17 | viability ([2]; 0.2 µM): 0.128 | viability ([2]; 1 µM): 0.0823 | viability ([2]; 5 µM): 0.0488 | viability ([3]; 0.008 µM): 0.538 | viability ([3]; 0.04 µM): 0.295 | viability ([3]; 0.2 µM): 0.277 | viability ([3]; 1 µM): 0.065 | viability ([3]; 5 µM): 0.0217 | viability ([4]; 0.008 µM): 0.801 | viability ([4]; 0.04 µM): 0.655 | viability ([4]; 0.2 µM): 0.526 | viability ([4]; 1 µM): 0.133 | viability ([4]; 5 µM): 0.0172 | viability ([5]; 0.008 µM): 0.426 | viability ([5]; 0.04 µM): 0.155 | viability ([5]; 0.2 µM): 0.0754 | viability ([5]; 1 µM): 0.0534 | viability ([5]; 5 µM): 0.0375 | viability ([6]; 0.008 µM): 0.868 | viability ([6]; 0.04 µM): 0.763 | viability ([6]; 0.2 µM): 0.717 | viability ([6]; 1 µM): 0.548 | viability ([6]; 5 µM): 0.177 | viability ([7]; 0.008 µM): 0.974 | viability ([7]; 0.04 µM): 0.963 | viability ([7]; 0.2 µM): 1.07 | viability ([7]; 1 µM): 0.332 | viability ([7]; 5 µM): 0.016 | viability ([8]; 0.008 µM): 0.139 | viability ([8]; 0.04 µM): 0.125 | viability ([8]; 0.2 µM): 0.124 | viability ([8]; 1 µM): 0.102 | viability ([8]; 5 µM): 0.0662 | viability ([9]; 0.008 µM): 0.952 | viability ([9]; 0.04 µM): 0.811 | viability ([9]; 0.2 µM): 0.608 | viability ([9]; 1 µM): 0.126 | viability ([9]; 5 µM): 0.0293 | viability ([10]; 0.008 µM): 1.02 | viability ([10]; 0.04 µM): 0.812 | viability ([10]; 0.2 µM): 0.598 | viability ([10]; 1 µM): 0.246 | viability ([10]; 5 µM): 0.0145 | viability ([11]; 0.008 µM): 0.963 | viability ([11]; 0.04 µM): 1.55 | viability ([11]; 0.2 µM): 0.853 | viability ([11]; 1 µM): 0.649 | viability ([11]; 5 µM): 0.742 | viability ([12]; 0.008 µM): 0.886 | viability ([12]; 0.04 µM): 0.691 | viability ([12]; 0.2 µM): 0.541 | viability ([12]; 1 µM): 0.538 | viability ([12]; 5 µM): 0.0152 | viability ([13]; 0.008 µM): 0.535 | viability ([13]; 0.04 µM): 0.271 | viability ([13]; 0.2 µM): 0.216 | viability ([13]; 1 µM): 0.0605 | viability ([13]; 5 µM): 0.0218 | viability ([14]; 0.008 µM): 0.839 | viability ([14]; 0.04 µM): 0.715 | viability ([14]; 0.2 µM): 0.661 | viability ([14]; 1 µM): 0.152 | viability ([14]; 5 µM): 0.0445 | viability ([15]; 0.008 µM): 0.452 | viability ([15]; 0.04 µM): 0.326 | viability ([15]; 0.2 µM): 0.363 | viability ([15]; 1 µM): 0.236 | viability ([15]; 5 µM): 0.169 | viability ([16]; 0.008 µM): 0.614 | viability ([16]; 0.04 µM): 0.383 | viability ([16]; 0.2 µM): 0.335 | viability ([16]; 1 µM): 0.0955 | viability ([16]; 5 µM): 0.0133 | viability ([17]; 0.008 µM): 0.788 | viability ([17]; 0.04 µM): 0.651 | viability ([17]; 0.2 µM): 0.517 | viability ([17]; 1 µM): 0.156 | viability ([17]; 5 µM): 0.0504 | viability ([18]; 0.008 µM): 0.278 | viability ([18]; 0.04 µM): 0.0753 | viability ([18]; 0.2 µM): 0.0754 | viability ([18]; 1 µM): 0.0236 | viability ([18]; 5 µM): 0.014 | viability ([19]; 0.008 µM): 0.739 | viability ([19]; 0.04 µM): 0.849 | viability ([19]; 0.2 µM): 0.488 | viability ([19]; 1 µM): 0.0542 | viability ([19]; 5 µM): 0.0236 | viability ([20]; 0.008 µM): 0.991 | viability ([20]; 0.04 µM): 0.995 | viability ([20]; 0.2 µM): 0.978 | viability ([20]; 1 µM): 0.862 | viability ([20]; 5 µM): 0.0416
